Reference: paper PMC9916883, “Betaine- and L-Carnitine-Based Ionic Liquids as Solubilising and Stabilising Agents for the Formulation of Antimicrobial Eye Drops Containing Diacerein” (International Journal of Molecular Sciences, 2023)
≈ marks a conversion by molar mass, not a printed value. Like-named read-outs stand apart in the source and are kept apart here.

Assays:
[1] = system: S. aureus (clinical isolate W4); assay: MIC determination (microdilution); type: cell-based, Staphylococcus aureus
Description: (§1) A clinical isolate of S. aureus (W4) and the reference strain of P. aeruginosa ATCC 27853 were used in the study. For the preparation of stock cultures, bacterial strains were grown in Luria–Bertani broth (LB, Oxoid, Basingstoke, Hampshire, UK) until the late-log phase, subdivided into aliquots, and kept frozen at −80 °C until use. Identification and susceptibility testing of the S. aureus W4 strain were performed using MALDI-TOF (Bruker Daltonics, Bremen, Germany) and the BD Phoenix susceptibility testing system (BD, Milan, Italy), respectively.
(§2) The susceptibility of the bacterial strains to each of the tested compounds was assessed in terms of MIC values according to the standard microdilution method (Clinical and Laboratory Standards Institute–CLSI, 2018), with some modifications. Briefly, the bacteria were grown in LB broth until the exponential growth phase and then diluted in the same medium to reach a final density of 5 × 10^6 CFU/mL. A volume of 10 μL of the bacterial suspensions was added to 90 μL of LB in a 96-well plate in the absence (viability control) or presence of the test compound at different concentrations.

[2] = Phase solubility study (apparent solubility of DIA and Rhe with ILs or HP-β-CD); type: physicochemical; details: 25 °C, aqueous with cosolvent or surfactant or cyclodextrin, thermodynamic from solid, read-out: saturation solubility
Description: The increase in the apparent solubility of both DIA and Rhe in the presence of the ILs was evaluated. Briefly, aqueous solutions of the ILs were prepared in the range of 0–200 mg/mL, and an excess of either DIA or Rhe was added to each vial. The samples were then incubated for 30 min at 25°C, and the undissolved drug was removed by centrifugation at […] for 15 min (Hettich Mikro 120 centrifuge). […] The drug concentration was measured by UV–Vis analysis. The DIA phase solubility study was also compared to the phase solubility study of DIA in the presence of HP-β-CD as a reference solubility/stability-enhancing excipient. […] The complexation K was calculated through Higuchi and Connors’ method, as previously reported.
The size distribution and zeta potential values of the ILs’ aggregates in aqueous solutions were evaluated by using a Zetasizer Nano ZS (Malvern) at 25 °C. The samples were prepared by adding an excess of either DIA or Rhe (5 mg/mL) to the aqueous IL solutions, incubating them for 30 min at 25 °C, and finally removing the excess drugs by centrifugation. […] In contrast, for PB solutions, the solutions were prepared in water, and […] of 100 mM pH 7 phosphate buffer was added per 1 mL of aqueous solution, directly in the cuvette, before the dynamic light scattering (DLS) analysis started. The concentrations of the solubilised drug were determined by UV–Vis analysis.

[3] = system: BALB/3T3 clone A31 fibroblast cells; assay: Cytotoxicity screening (WST-1); type: cell-based, murine; details: Mus musculus, 4 h incubation, read-out: IC50 of cell viability
Description: BALB/3T3 clone A31 fibroblast cells were grown in Dulbecco’s Modified Eagle Medium (DMEM), supplemented with 2 mM L-glutamine, 1% penicillin/streptomycin, and 10% bovine calf serum. Cells were grown in a CO2 incubator (Heracell 150i series) at 37 °C and 5% CO2, with cells sub-cultured at 80–90% confluency. The cell monolayers were rinsed with PBS and treated with trypsin–EDTA to detach the cells before their resuspension in fresh media. A subconfluent monolayer of BALB/3T3 clone A31 fibroblast cells was trypsinised, centrifuged at 1000 rpm for 5 min, resuspended in growth medium, and counted.
A cytotoxicity screening was carried out for both ILs (range […]), as well as DIA and Rhe (0.5–200 mg/mL). Briefly, BALB/3T3 clone A31 fibroblast cells were seeded in each well of 96-well plates at a seeding density of 6 × 10^3 cells/well for 24 h, until 60–70% confluence was reached. After 24 h, the medium was then removed from each well and replaced with DMEM containing the samples.
After 4 h of incubation, the media were removed, replaced with fresh medium containing 10% WST-1 reagent solution, and maintained for 4 h at 37° C with 5% CO2. Afterwards, formazan dye absorbance was quantified at 450 nm with the reference wavelength at 655 nm by using a multilabel reader (BioTek 800/TS, Thermo Scientific).

[4] = system: S. aureus W4; assay: Biofilm inhibition assay (crystal violet); type: cell-based, Staphylococcus aureus; details: 12.5 μg/mL
Description: (§3) After overnight growth in LB, cultures of P. aeruginosa ATCC 27853 and S. aureus W4 were diluted 1:100 in LB or in 50% tryptone soy broth (TSB, Oxoid) supplemented with 0.25% glucose (Sigma), respectively. The bacterial suspensions were dispensed into flat-bottomed polystyrene 96-well microplates (Corning Costar, Lowell, MA, USA) in the presence of sub-MIC concentrations of Rhe and DIA (3.12, 6.25, and 12.5 μg/mL). A sample containing 0.8 DMSO % (corresponding to the highest concentration of DMSO tested) was used as a control. The microplates were incubated statically at 37 °C for 24 h, and the biofilm biomass was estimated by CV (Sigma-Aldrich) staining assay, as previously described.

[5] = system: P. aeruginosa ATCC 27853; assay: Biofilm inhibition assay (crystal violet); type: cell-based, Pseudomonas aeruginosa; details: any of the concentrations tested (3.12, 6.25, 12.5 μg/mL)
Description: as §3

[6] = system: P. aeruginosa ATCC 27853; assay: MIC determination (microdilution); type: cell-based, Pseudomonas aeruginosa
Description: as §1, §2

[7] = system: murine fibroblast NIH 3T3 cells; set-up: method as in PMID 20302969, doi:10.1039/c0gc00813c; details: ref [29],[30]; cited from earlier work

Molecule	MIC ([1]; Staphylococcus aureus, planktonic cells, 24 h, 37 °C) [µg/mL]	antibacterial effect ([1]; in words (discussion))	solubility at 30 min ([2]; in Bet6 solutions) [µg/mL]	solubility at 30 min ([2]; in Carn6 solutions) [µg/mL]	IC50 [3] [µg/mL]	biofilm formation (CV staining, OD 570 nm) [4]	biofilm formation (CV staining, OD 570 nm), difference vs control [5]	MIC ([6]; Pseudomonas aeruginosa, ATCC27853, planktonic cells, 24 h, 37 °C) [µg/mL]	antibacterial effect ([6]; in words (discussion))	IC50 [7] [µg/mL]
O=C(O)c1cc(O)c2c(c1)C(=O)c1cccc(O)c1C2=O [Rhe, rhein]	50 (≈ 176 µM)	exert antibacterial effects	220 (≈ 774 µM)	130 (≈ 457 µM)	6.7 (≈ 23.6 µM)	statistically significant reduction in biofilm formation	not statistically significant	> 50	inactive	
benzalkonium chloride [Bak]										9.4
